Values after ≈ are worked out from the molar mass of the structure shown.
Settings: buffer; pH 7.4; 200.0 µM

`CCC1(C)Cc2ccccc2C(=O)N1` (stereo not given) and `Cc1cc(NC(=O)Cc2ccccc2C)no1` are within 1.5-fold of each other in solubility kinetic: 25.2 µg/mL (≈ 133 µM) for the first, 32.5 µg/mL (≈ 141 µM) for the second.

`COC(=O)c1cc(S(=O)(=O)N2CCC(C(N)=O)CC2)oc1C` and `O=C(COC(=O)c1ccc(Br)o1)Nc1cccc(S(=O)(=O)N2CCOCC2)c1` cannot be ordered by solubility kinetic: greater than 49.6 µg/mL for the first, 59.2 µg/mL (≈ 125 µM) for the second.

First: O=C(COC(=O)c1ccco1)Nc1ccc2[nH]c(=O)[nH]c2c1
Second: Cc1ccc2ccccc2c1NC(=O)c1ccco1
The solubility kinetic of the first is lower: 9.3 µg/mL (≈ 30.9 µM) for the first, greater than 37.7 µg/mL for the second.

`c1ccc(N2CCOCCOCCOCCOCC2)cc1` and `O=C(c1cc2ccccc2oc1=O)N1CCOCC1` cannot be ordered by solubility kinetic: greater than 44.3 µg/mL for the first, greater than 38.9 µg/mL for the second.

`O=C(Cn1cncn1)N/N=C/c1ccccc1Cl` and `CC(=O)Nc1ccc(OCC(O)Cn2cncn2)cc1` (stereo not given) cannot be ordered by solubility kinetic: greater than 39.6 µg/mL for the first, greater than 41.4 µg/mL for the second.

Compared with `CC1=CCC(C(=O)O)C(C(=O)Nc2cccnc2)C1` (stereo not given), `COc1ccc(C(=O)CCC(=O)Nc2cccnc2)c(OC)c1` is higher in solubility kinetic: 33.3 µg/mL (≈ 128 µM) for the first, greater than 47.2 µg/mL for the second.

Going from `COc1ccc(-c2cc(C(=O)NC3CCCC3)c3ccccc3n2)cc1OC` to `COc1ccccc1OCc1ccc(C(=O)NC2CCCCC2)o1`, the solubility kinetic rises from 1.6 µg/mL (≈ 4.25 µM) to 39.8 µg/mL (≈ 121 µM) (25-fold).

Going from `O=S(=O)(c1ccccc1)c1nc(-c2ccco2)oc1N1CCCCC1` to `COc1ccc2cc(S(=O)(=O)N3CCCC3)ccc2c1`, the solubility kinetic falls from 16.1 µg/mL (≈ 44.9 µM) to 3.5 µg/mL (≈ 12 µM) (4.6-fold).

`O=C(O)c1ccc2c(c1)SC1=NS(=O)(=O)CCN12` and `O=C(O)CCN1C(=O)S/C(=C\c2cccnc2)C1=O` cannot be ordered by solubility kinetic: greater than 42.6 µg/mL for the first, greater than 41.7 µg/mL for the second.

Going from `CC1CCCC(NC(=O)CCn2c(=S)oc3ccccc32)C1C` (stereo not given) to `CC1CCCC(NC(=O)COC(=O)CCc2ccccc2)C1C` (stereo not given), the solubility kinetic rises from 2 µg/mL (≈ 6.02 µM) to 12.2 µg/mL (≈ 38.4 µM) (6.1-fold).

Compared with `COC(=O)C1CN(C(=O)c2cccc(OC(F)F)c2)c2ccccc2O1` (stereo not given), `O=C(CNC(=O)c1ccc(OC(F)F)cc1)NC1CCCc2ccccc21` (stereo not given) is lower in solubility kinetic: greater than 54.5 µg/mL for the first, 5.6 µg/mL (≈ 15 µM) for the second.

Compared with `Cc1ccc(C(=O)OCC(=O)N(C)c2ccccc2)cc1C`, `CC(=O)c1ccc[n+](CC(=O)NC(C)c2ccccc2)c1.[Cl-]` (stereo not given) is higher in solubility kinetic: 41.4 µg/mL (≈ 139 µM) for the first, greater than 47.8 µg/mL for the second.

`S=C1NCN(Cc2cccnc2)CN1Cc1ccccc1` and `O=C(Cc1ccc([N+](=O)[O-])cc1)NCc1cccnc1` cannot be ordered by solubility kinetic: greater than 44.8 µg/mL for the first, greater than 40.7 µg/mL for the second.

Compared with `Cc1ccc2nc(-c3ccccn3)cc(C(=O)NC(C)C(C)(C)C)c2c1` (stereo not given), `Cc1cc(C)nc(/N=C(\NC(=O)C(C)(C)C)Nc2ccccc2)n1` is 1.8-fold lower in solubility kinetic: 3.2 µg/mL (≈ 9.21 µM) for the first, 1.8 µg/mL (≈ 5.53 µM) for the second.

Going from `O=C1c2cccc3c(O)ccc(c23)C(=O)N1c1ccc(Cl)cc1` to `O=C(CCCSc1ccc(Cl)cc1)Nc1ccccc1O`, the solubility kinetic falls from 16.2 µg/mL (≈ 50 µM) to 8.6 µg/mL (≈ 26.7 µM) (1.9-fold).

Compared with `COc1cccc(-c2ccc3c(N)c(C(=O)NC4CC4)sc3n2)c1`, `CC(=O)Nc1ccc(-c2csc(-c3cccnc3)n2)cc1` is 2.6-fold lower in solubility kinetic: 15.1 µg/mL (≈ 44.5 µM) for the first, 5.9 µg/mL (≈ 20 µM) for the second.

`Cc1ccc(OS(=O)(=O)c2cn(C)c(=O)n(C)c2=O)cc1C` and `Cn1c(N)c(C(=O)COC(=O)CNC(=O)c2ccccc2)c(=O)n(C)c1=O` cannot be ordered by solubility kinetic: greater than 48.7 µg/mL for the first, greater than 56.2 µg/mL for the second.

First: Cc1c(O)nc(SC2CC(=O)N(c3cc(Cl)cc(Cl)c3)C2=O)[nH]c1=O (stereo not given)
Second: CCc1cc2cc(C)cc(C)c2nc1Cl
The solubility kinetic of the first is higher: greater than 60 µg/mL for the first, less than 0.5 µg/mL for the second.

Going from `O=CNCCc1nc2ccccc2n1CCc1ccccc1` to `COc1ccc(CCC(=O)NCC(=O)OCc2ccccc2)cc1`, the solubility kinetic rises from 41 µg/mL (≈ 140 µM) to greater than 49.1 µg/mL.

`O=C(c1ccccc1F)N1CCCC(C(=O)N2CCc3ccccc3C2)C1` (stereo not given) and `O=C(Nc1ccccc1C(=O)N1CCCCCC1)c1ccc(F)cc1` cannot be ordered by solubility kinetic: 51.3 µg/mL (≈ 140 µM) for the first, greater than 51.1 µg/mL for the second.

First: O=[N+]([O-])c1cccc(S(=O)(=O)c2cccc([N+](=O)[O-])c2)c1
Second: O=C(CCNC(=O)c1ccc([N+](=O)[O-])cc1)NCc1cccs1
The solubility kinetic of the first is lower: 0.4 µg/mL (≈ 1.3 µM) for the first, greater than 50 µg/mL for the second.

Going from `CC(C)CC(=O)N1CCN(C(=O)c2ccco2)CC1` to `CS/C(=C\C(=O)c1ccco1)Nc1ccccc1Cl`, the solubility kinetic falls from greater than 39.6 µg/mL to 10.4 µg/mL (≈ 35.4 µM).

`COCCNC(=S)Nc1ccc([N+](=O)[O-])cc1C` and `Cc1cc(Br)ccc1NC(=O)CN(C)C(=O)C1=COCCO1` cannot be ordered by solubility kinetic: greater than 40.4 µg/mL for the first, greater than 55.4 µg/mL for the second.

First: COc1cc(NC(=S)Nc2cccnc2)cc(OC)c1
Second: COc1ccccc1C(=O)NCCCNC(=O)c1cccnc1
The solubility kinetic of the first is lower: less than 0.2 µg/mL for the first, 36.8 µg/mL (≈ 117 µM) for the second.

`Cn1cnnc1SCC(=O)NC1CCCCCC1` and `Cc1ccccc1OCCC(=O)OCC(=O)NC1CCCCC1` cannot be ordered by solubility kinetic: greater than 40.3 µg/mL for the first, greater than 47.9 µg/mL for the second.

`COCCCNS(=O)(=O)c1cc2c3c(c1)C(C)C(=O)N3CCC2` (stereo not given) and `CCOc1cc(S(=O)(=O)NCC2CCCO2)ccc1F` (stereo not given) cannot be ordered by solubility kinetic: greater than 50.8 µg/mL for the first, greater than 45.5 µg/mL for the second.

`Cc1ccc(C(C)NC(=O)c2ccc3c(c2)OCO3)cc1C` (stereo not given) and `Cc1ccc(NC2CCCN(C(=O)c3cccs3)C2)cc1C` (stereo not given) are within 1.5-fold of each other in solubility kinetic: 39.4 µg/mL (≈ 133 µM) for the first, 47.1 µg/mL (≈ 150 µM) for the second.

`O=C(Cc1cccc2ccccc12)Nc1ccc(O)cc1C(=O)O` and `CC(=O)N/C(=C\c1ccccc1)C(=O)Nc1ccc(O)cc1` cannot be ordered by solubility kinetic: greater than 48.2 µg/mL for the first, greater than 44.4 µg/mL for the second.

`CN(Cc1ccccc1)C1CCNCC1.Cl` and `Cl.Fc1ccccc1CNC1CN2CCC1CC2` (stereo not given) cannot be ordered by solubility kinetic: greater than 41.6 µg/mL for the first, greater than 46.1 µg/mL for the second.

`CCS(=O)(=O)C(C)(CCl)C(=O)Nc1ccc(C(=O)OC)cc1` (stereo not given) and `COc1ccc(C(=O)C(C)OC(=O)CN2C(=O)c3ccccc3C2=O)cc1` (stereo not given) cannot be ordered by solubility kinetic: greater than 52.2 µg/mL for the first, greater than 55.1 µg/mL for the second.

`COc1ccc(CCNc2ccc(S(N)(=O)=O)cn2)cc1` and `COc1ccc(CCNc2nc(C)c(C(C)=O)s2)cc1OC` are within 1.5-fold of each other in solubility kinetic: 42.8 µg/mL (≈ 139 µM) for the first, 44.1 µg/mL (≈ 138 µM) for the second.

`Cl.O=C(NCCN1CCOCC1)c1ccc(S(=O)(=O)Nc2ccccc2)cc1` and `O=C(NCCCN1CCCC1)Nc1ccccc1[N+](=O)[O-]` cannot be ordered by solubility kinetic: greater than 63.9 µg/mL for the first, greater than 43.9 µg/mL for the second.

Compared with `CCOc1cc(C(F)(F)F)cnc1/C(N)=N/O`, `CC(C)CC(Nc1ncnc2scc(-c3ccccc3)c12)C(=O)O` (stereo not given) is higher in solubility kinetic: 36.9 µg/mL (≈ 148 µM) for the first, greater than 51.2 µg/mL for the second.

First: O=C(CN1C(=O)C(=O)N(CCC2=CCCCC2)C1=O)c1c[nH]c2ccccc12
Second: O=C(CN1C(=O)NC2(CCOc3ccccc32)C1=O)c1cccs1 (stereo not given)
The solubility kinetic of the first is lower: 3.2 µg/mL (≈ 8.43 µM) for the first, greater than 51.4 µg/mL for the second.

`Cl.O=C1CC[C@@]2(O)[C@H]3Cc4ccc(O)c5c4[C@@]2(CCN3CC2CC2)[C@H]1O5` and `CC(C)(C)OC(=O)N1CCC(C(=O)NCC2CCCO2)CC1` (stereo not given) cannot be ordered by solubility kinetic: greater than 56.7 µg/mL for the first, greater than 46.9 µg/mL for the second.

Going from `CCCCC1(c2ccc(F)cc2)NC(=O)N(CC(=O)Nc2ccc(N3CCOCC3)cc2)C1=O` (stereo not given) to `O=c1[nH]c2ccc(S(=O)(=O)N3CCN(c4ccc(F)cc4)CC3)cc2o1`, the solubility kinetic falls from 55.7 µg/mL (≈ 119 µM) to 5.7 µg/mL (≈ 15.1 µM) (9.8-fold).

Compared with `CC1CCCN(c2ccc(F)cc2N)C1.Cl` (stereo not given), `Cc1ccc(C)n1-c1ccc(N2CCOCC2)c([N+](=O)[O-])c1` is 7.7-fold higher in solubility kinetic: 3.8 µg/mL for the first, 29.3 µg/mL (≈ 97.2 µM) for the second.

Compared with `O=C(O)CC1SC(=Nc2ccc(O)cc2)NC1=O` (stereo not given), `O=C(Nc1cc(Cl)ccc1O)C1CC(c2ccccc2O)=NO1` (stereo not given) is lower in solubility kinetic: greater than 39.9 µg/mL for the first, 5.8 µg/mL (≈ 17.4 µM) for the second.

Going from `Cc1ccc(-c2c(C)n([O-])c3c([n+]2=O)CCCC3)cc1` to `O=c1c2oc3nc4c(cc3c2ncn1CCCc1ccccc1)CCCC4`, the solubility kinetic falls from greater than 40.5 µg/mL to 1.3 µg/mL (≈ 3.62 µM).

First: CN(C)C(=S)Nc1ccc(Br)c(Cl)c1
Second: Fc1cccc(NC(=S)NCc2ccccc2Cl)c1
The solubility kinetic of the first is 23-fold higher: 37 µg/mL (≈ 126 µM) for the first, 1.6 µg/mL (≈ 5.43 µM) for the second.

`Cc1cc2[nH]cnc2c([N+](=O)[O-])c1C` and `O=C1Cc2cc(S(=O)(=O)N3CCNCC3)ccc2N1` cannot be ordered by solubility kinetic: greater than 28.7 µg/mL for the first, 39.1 µg/mL (≈ 139 µM) for the second.

Compared with `C=CCn1c(O)c(/C=C2/C=c3ccccc3=N2)c(=O)[nH]c1=S`, `CCC(C(=O)Nc1ccon1)c1ccccc1` (stereo not given) is higher in solubility kinetic: 1.2 µg/mL (≈ 3.85 µM) for the first, greater than 34.5 µg/mL for the second.

With `O=C(NCCNC(=O)c1ccc(Cl)cc1Cl)c1ccccn1` the solubility kinetic was 43.4 µg/mL (≈ 128 µM).
